Data reported in patent US20060020029A1, “Pharmaceutical compositions from ethnobotanicals” (priority 2004, published 2006).

How the values were obtained:
[1] = system: Herpes simplex virus type 1 (MacIntyre strain); experiment: CPE assay, HSV-1 specificity; assay type: cell-based
Procedure: To determine whether the fractions are specific RSV inhibitors rather than general antiviral agents, the inventors tested them against influenza type A/Shangdong/09/93 (H3N2), herpes simplex type 1 (MacItyre), and herpes simplex type 2 (MS) using the CPE assay system.
CJ4-16-4 was tested using influenza type A, herpes simplex virus type 1, and herpes simplex virus type 2 using the CPE assay with MDCK or Vero cells.

[2] = Stability in DMSO / water (HPLC); assay type: physicochemical
Procedure: Next, the stability of 3,5-DCQA was evaluated in various concentrations of DMSO. 5.2 mg 3,5-DCQA was dissolved in 0.208 ml DMSO (conc.=25 mg/ml), and then diluted with water as 40% DMSO in water solution, 20% DMSO in water solution, and 10% DMSO in water solution, respectively. All samples were subjected on HPLC in 0 Day, 1 Day, 2 Day and 4 Day, and the Area % of 3,5-DCQA was calculated.
In the presence of water, 3,5-DCQA was converted into 4,5-dicaffeoylquinic acid (4,5-DCQA), as observed using HPLC. HPLC analysis of 3,5-DCQA in DMSO and H2O (conc.=2.5 mg/ml) at 0 day, 2 Day and 4 Day indicated a progressive degradation of 3,5-DCQA. By the forth day in 10% DMSO in H2OP, over 11% of 3,5-DCQA was changed into 4,5-DCQA.

O=C(/C=C/c1ccc(O)c(O)c1)OC1CC(O)(C(=O)O)CC(OC(=O)/C=C/c2ccc(O)c(O)c2)C1O (stereo not shown) [CJ4-16-4, 3,5-di-O-caffeoylquinic acid]
activity against HSV-1 (in words) [1]: inactive | EC50, Herpes simplex virus type 1 (MacIntyre strain) ([1]; CPE assay with MDCK or Vero cells): > 50 µg/mL | EC50 ([1]; μM using the estimated FW-516): > 100 µM | 3,5-DCQA changed into 4,5-DCQA ([2]; 10% DMSO in H2O (2.5 mg/ml), fourth day): over 11% | Area % of 3,5-DCQA (HPLC) ([2]; 10% DMSO in H2O, 0 Day): 97.25 Area % | Area % of 3,5-DCQA (HPLC) ([2]; 10% DMSO in H2O, 1 Day): 93.60 Area % | Area % of 3,5-DCQA (HPLC) ([2]; 10% DMSO in H2O, 2 Day): 89.50 Area % | Area % of 3,5-DCQA (HPLC) ([2]; 10% DMSO in H2O, 4 Day): 86.01 Area % | Area % of 3,5-DCQA (HPLC) ([2]; 20% DMSO in H2O, 1 Day): 94.56 Area % | Area % of 3,5-DCQA (HPLC) ([2]; 20% DMSO in H2O, 2 Day): 91.91 Area % | Area % of 3,5-DCQA (HPLC) ([2]; 20% DMSO in H2O, 4 Day): 89.08 Area % | Area % of 3,5-DCQA (HPLC) ([2]; 40% DMSO in H2O, 1 Day): 96.33 Area % | Area % of 3,5-DCQA (HPLC) ([2]; 40% DMSO in H2O, 2 Day): 94.72 Area % | Area % of 3,5-DCQA (HPLC) ([2]; 40% DMSO in H2O, 4 Day): 93.90 Area % | Area % of 3,5-DCQA (HPLC) ([2]; 100% DMSO (25 mg/ml), 0 Day): 97.28 Area % | Area % of 3,5-DCQA (HPLC) ([2]; 100% DMSO (25 mg/ml), 1 Day): 97.34 Area % | Area % of 3,5-DCQA (HPLC) ([2]; 100% DMSO (25 mg/ml), 2 Day): 97.15 Area % | Area % of 3,5-DCQA (HPLC) ([2]; 100% DMSO (25 mg/ml), 4 Day): 97.09 Area % | degradation in 100% DMSO (in words) ([2]; 100% DMSO, up to 4 Day): No statistically significant degradation
